Test results published in patent publication US4973554A, “Affinity process for trypsin purification and stabilization” (National Research Council of Canada, priority 1987, dated 1990).

How the values were obtained:
[1] = molecular target: T1, trypsin (Bos taurus, UniProt P00760); test: Elution of bound trypsin from affinity polymer during ultrafiltration; settings: for elution of bound trypsin from polymer 5:1 by eluting solution: 500 mM arginine with 10 mM Ca++ in Tris pH 8, 2M KCl with 10 mM Ca++ in pH 8 Tris, 10 mM m-aminobenzamidine, data not shown
T1 sequence (P00760 24-246): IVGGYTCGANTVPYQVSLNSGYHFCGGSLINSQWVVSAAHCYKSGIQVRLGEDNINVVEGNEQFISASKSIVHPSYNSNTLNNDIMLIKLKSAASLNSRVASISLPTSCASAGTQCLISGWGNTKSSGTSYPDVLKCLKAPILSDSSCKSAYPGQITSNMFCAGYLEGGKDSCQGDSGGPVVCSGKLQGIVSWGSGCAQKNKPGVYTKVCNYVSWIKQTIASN
Description: Investigation was next conducted on the eluting characteristics of four agents (FIG. 1).
Tests were also performed to determine whether the elution of trypsin with arginine was affected by the acrylamide:monomer ratio and the polymer concentration.

[2] = molecular target: T1, trypsin; test: Trypsin inhibition kinetics, substrate Nα-benzoyl-L-arginine p-nitroanilide; assay type: biochemical
[3] = molecular target: T1, trypsin; settings: with respect to substrate benzoyl-L-arginine p-nitroanilide; literature; cited from earlier work
[4] = tested on: trypsin; settings: Adamski-Medda et al, 1981; cited from earlier work
[5] = tested on: chymotrypsin; settings: Adamski-Medda et al, 1981; cited from earlier work
[6] = molecular target: T1, trypsin; test: Trypsin storage stability with/without affinity polymer (trypsin activity); assay type: physicochemical; settings: without affinity polymer
Description: Trypsin can be adsorbed by the affinity polymer and stored until this enzyme is required for use or further processing. […] Without the affinity polymer, the trypsin retained only half of its activity at 25° C. after three days even though this solution was stabilized by adding an appropriate amount of calcium. It was further shown that at 4° C. without the affinity polymer trypsin retained approximately 70% of its original activity after 10 days.

[Cl-].[K+] [KCl]
elution of bound trypsin from polymer 5:1 by eluting solution [1]: eluted easily

N=C(N)NCCC[C@H](N)C(=O)O [arginine, L-arginine]
Ki [2]: 41 ± 3 mM | mechanism of trypsin inhibition ([2]; with respect to substrate Nα-benzoyl-L-arginine p-nitroanilide, data not shown): competitive inhibitor | elution of bound trypsin from polymer 5:1 by eluting solution [1]: eluted easily | eluting characteristics of agents (FIG. 1) ([1]; polymer 5:1 at 0.75% containing 300 mg trypsin, four agents compared): most effective eluting agent

N=C(N)c1cccc(N)c1 [m-aminobenzamidine]
inhibitor strength among ortho, meta, para aminobenzamidine ([2]; position of amino group compared): strongest inhibitor | elution of bound trypsin from polymer 5:1 by eluting solution [1]: eluted easily | trypsin inhibition kinetics (mechanism) [3]: competitive manner

dextran-p-aminobenzamidine
trypsin in the filtrate in presence of macroligand [4]: 24% | chymotrypsin in the filtrate in presence of macroligand [5]: 65%

B1: trypsin (protein, UniProt P00760 24-246, looked up)
Serine protease 1: T1 sequence (P00760 24-246)
original trypsin activity retained ([6]; 4° C., 10 days): approximately 70% | trypsin activity retained ([6]; 25° C., three days, calcium added): half
